Experimental data published in patent publication US20050197350A1, “Novel quinoline, tetrahydroquinazoline, and pyrimidine derivatives and methods of treatment related to the use thereof” (TAISHO PHARMACEUTICAL CO., LTD., priority 2003, published 2005).

tested on: MCH receptors; test: MCH receptor activity class (method not given); conditions: MCH receptor; class by percent of control at 10^-7 M or IC50

SMILES | class
CN(C)c1cc(N[C@H]2CC[C@@H](CNC(=O)c3ccc(Cl)c(Cl)c3)CC2)nc2ccccc12 [compound 158] | 3 (Class 3 The value of percent of control at 10^−7 M was more than 60% or the value of IC50 was more than 200 nM.)
CN(C)c1cc(N[C@H]2CC[C@@H](CNC(=O)C(c3ccccc3)c3ccccc3)CC2)nc2ccccc12 [compound 159, N-[(cis-4-{[4-(dimethylamino)quinolin-2-yl]amino}cyclohexyl)methyl]-2,2-diphenylacetamide] | 2 (Class 2: The value of percent of control at 10^−7 M was from 40% to 60% or the value of IC′50 was from 50 nM to 200 nM.)
CN(C)c1cc(N[C@H]2CC[C@@H](CNC(=O)c3ccc(F)c(F)c3)CC2)nc2ccccc12 [compound 160, N-[(cis-4-{[4-(dimethylamino)quinolin-2-yl]amino}cyclohexyl)methyl]-3,4-difluorobenzamide] | 3 (Class 3 The value of percent of control at 10^−7 M was more than 60% or the value of IC50 was more than 200 nM.)
CN(C)c1cc(N[C@H]2CC[C@@H](CNC(=O)c3cc(F)cc(F)c3)CC2)nc2ccccc12 [compound 161, N-[(cis-4-{[4-(dimethylamino)quinolin-2-yl]amino}cyclohexyl)methyl]-3,5-difluorobenzamide] | 3 (Class 3 The value of percent of control at 10^−7 M was more than 60% or the value of IC50 was more than 200 nM.)
COc1ccc(OC)c(CC(=O)NC[C@H]2CC[C@@H](Nc3cc(N(C)C)c4ccccc4n3)CC2)c1 [compound 162] | 3 (Class 3 The value of percent of control at 10^−7 M was more than 60% or the value of IC50 was more than 200 nM.)
CCSc1ncccc1C(=O)NC[C@H]1CC[C@@H](Nc2cc(N(C)C)c3ccccc3n2)CC1 [compound 163] | 3 (Class 3 The value of percent of control at 10^−7 M was more than 60% or the value of IC50 was more than 200 nM.)
CN(C)c1cc(N[C@H]2CC[C@@H](CNC(=O)c3ccc(F)cc3)CC2)nc2ccccc12 [compound 164, N-[(cis-4-{[4-(dimethylamino)quinolin-2-yl]amino}cyclohexyl)methyl]-4-fluorobenzamide] | 3 (Class 3 The value of percent of control at 10^−7 M was more than 60% or the value of IC50 was more than 200 nM.)
CN(C)c1cc(N[C@H]2CC[C@@H](CNC(=O)c3cc(F)cc(C(F)(F)F)c3)CC2)nc2ccccc12 [compound 165] | 3 (Class 3 The value of percent of control at 10^−7 M was more than 60% or the value of IC50 was more than 200 nM.)
CN(C)c1cc(N[C@H]2CC[C@@H](CNC(=O)c3cc(F)c(Cl)cc3Cl)CC2)nc2ccccc12 [compound 166] | 3 (Class 3 The value of percent of control at 10^−7 M was more than 60% or the value of IC50 was more than 200 nM.)
CCCCCC(=O)NC[C@H]1CC[C@@H](Nc2cc(N(C)C)c3ccccc3n2)CC1 [compound 167] | 3 (Class 3 The value of percent of control at 10^−7 M was more than 60% or the value of IC50 was more than 200 nM.)
CN(C)c1cc(N[C@H]2CC[C@@H](CNC(=O)c3ccc(I)cc3)CC2)nc2ccccc12 [compound 168] | 3 (Class 3 The value of percent of control at 10^−7 M was more than 60% or the value of IC50 was more than 200 nM.)
CSc1ncccc1C(=O)NC[C@H]1CC[C@@H](Nc2cc(N(C)C)c3ccccc3n2)CC1 [compound 169] | 3 (Class 3 The value of percent of control at 10^−7 M was more than 60% or the value of IC50 was more than 200 nM.)
Cc1ccc(C(=O)NC[C@H]2CC[C@@H](Nc3cc(N(C)C)c4ccccc4n3)CC2)cc1[N+](=O)[O-] [compound 170, N-[(cis-4-{[4-(dimethylamino)quinolin-2-yl]amino}cyclohexyl)methyl]-4-methyl-3-nitrobenzamide] | 3 (Class 3 The value of percent of control at 10^−7 M was more than 60% or the value of IC50 was more than 200 nM.)
CN(C)c1cc(N[C@H]2CC[C@@H](CNC(=O)c3cccc([N+](=O)[O-])c3)CC2)nc2ccccc12 [compound 171, N-[(cis-4-{[4-(dimethylamino)quinolin-2-yl]amino}cyclohexyl)methyl]-3-nitrobenzamide] | 3 (Class 3 The value of percent of control at 10^−7 M was more than 60% or the value of IC50 was more than 200 nM.)
CN(C)c1cc(N[C@H]2CC[C@@H](CNC(=O)Cc3ccccc3)CC2)nc2ccccc12 [compound 172] | 3 (Class 3 The value of percent of control at 10^−7 M was more than 60% or the value of IC50 was more than 200 nM.)
CN(C)c1cc(N[C@H]2CC[C@@H](CNC(=O)C3C[C@H]3c3ccccc3)CC2)nc2ccccc12 (stereo partly shown) [compound 173] | 3 (Class 3 The value of percent of control at 10^−7 M was more than 60% or the value of IC50 was more than 200 nM.)
CN(C)c1cc(N[C@H]2CC[C@@H](CNC(=O)c3ccc4c(c3)OCO4)CC2)nc2ccccc12 [compound 174] | 3 (Class 3 The value of percent of control at 10^−7 M was more than 60% or the value of IC50 was more than 200 nM.)
Cc1cccc(C(=O)NC[C@H]2CC[C@@H](Nc3cc(N(C)C)c4ccccc4n3)CC2)c1 [compound 177, N-[(cis-4-{[4-(dimethylamino)quinolin-2-yl]amino}cyclohexyl)methyl]-3-methylbenzamide] | 3 (Class 3 The value of percent of control at 10^−7 M was more than 60% or the value of IC50 was more than 200 nM.)
Cc1ccc(C(=O)NC[C@H]2CC[C@@H](Nc3cc(N(C)C)c4ccccc4n3)CC2)cc1 [compound 178] | 3 (Class 3 The value of percent of control at 10^−7 M was more than 60% or the value of IC50 was more than 200 nM.)

SMILES | class
CN(C)c1cc(N[C@H]2CC[C@@H](CNC(=O)c3cccs3)CC2)nc2ccccc12 [compound 179] | 3 (Class 3 The value of percent of control at 10^−7 M was more than 60% or the value of IC50 was more than 200 nM.)
CN(C)c1cc(N[C@H]2CC[C@@H](CNC(=O)Cc3cccs3)CC2)nc2ccccc12 [compound 180] | 3 (Class 3 The value of percent of control at 10^−7 M was more than 60% or the value of IC50 was more than 200 nM.)
CN(C)c1cc(N[C@H]2CC[C@@H](CNC(=O)c3cccc(OC(F)(F)F)c3)CC2)nc2ccccc12 [compound 181, N-[(cis-4-{[4-(dimethylamino)quinolin-2-yl]amino}cyclohexyl)methyl]-3-(trifluoromethoxy)benzamide] | 3 (Class 3 The value of percent of control at 10^−7 M was more than 60% or the value of IC50 was more than 200 nM.)
CN(C)c1cc(NC2CCC(CNC(=O)OCc3ccccc3)CC2)nc2ccccc12 (stereo not shown) [compound 182] | 3 (Class 3 The value of percent of control at 10^−7 M was more than 60% or the value of IC50 was more than 200 nM.)
CN(C)c1cc(NC2CCC(CNC(=O)OCc3ccc([N+](=O)[O-])cc3)CC2)nc2ccccc12 (stereo not shown) [compound 183] | 3 (Class 3 The value of percent of control at 10^−7 M was more than 60% or the value of IC50 was more than 200 nM.)
Cc1cc(C(=O)NC[C@H]2CC[C@@H](Nc3cc(N(C)C)c4ccccc4n3)CC2)ccc1Br [compound 184] | 3 (Class 3 The value of percent of control at 10^−7 M was more than 60% or the value of IC50 was more than 200 nM.)
CN(C)c1cc(N[C@H]2CC[C@@H](CNC(=O)c3cccc(I)c3)CC2)nc2ccccc12 [compound 185, N-[(cis-4-{[4-(dimethylamino)quinolin-2-yl]amino}cyclohexyl)methyl]-3-iodobenzamide] | 3 (Class 3 The value of percent of control at 10^−7 M was more than 60% or the value of IC50 was more than 200 nM.)
CN(C)c1cc(N[C@H]2CC[C@@H](CNC(=O)c3cccc(Cl)c3F)CC2)nc2ccccc12 [compound 186] | 3 (Class 3 The value of percent of control at 10^−7 M was more than 60% or the value of IC50 was more than 200 nM.)
Cc1ccc(C(=O)NC[C@H]2CC[C@@H](Nc3cc(N(C)C)c4ccccc4n3)CC2)c(F)c1F [compound 187] | 3 (Class 3 The value of percent of control at 10^−7 M was more than 60% or the value of IC50 was more than 200 nM.)
CN(C)c1cc(N[C@H]2CC[C@@H](CNC(=O)c3ccc(F)cc3Cl)CC2)nc2ccccc12 [compound 188] | 3 (Class 3 The value of percent of control at 10^−7 M was more than 60% or the value of IC50 was more than 200 nM.)
CN(C)c1cc(N[C@H]2CC[C@@H](CNC(=O)c3ccc(F)c(Cl)c3F)CC2)nc2ccccc12 [compound 189, 3-chloro-N-[(cis-4-{[4-(dimethylamino)quinolin-2-yl]amino}cyclohexyl)methy]-2,4-difluorobenzamide] | 3 (Class 3 The value of percent of control at 10^−7 M was more than 60% or the value of IC50 was more than 200 nM.)
CN(C)c1cc(N[C@H]2CC[C@@H](CNC(=O)CSc3ccccc3)CC2)nc2ccccc12 [compound 190] | 3 (Class 3 The value of percent of control at 10^−7 M was more than 60% or the value of IC50 was more than 200 nM.)
CN(C)c1cc(N[C@H]2CC[C@@H](CNC(=O)c3cccc(C(F)(F)F)c3F)CC2)nc2ccccc12 [compound 191] | 3 (Class 3 The value of percent of control at 10^−7 M was more than 60% or the value of IC50 was more than 200 nM.)
CN(C)c1cc(N[C@H]2CC[C@@H](CNC(=O)c3cc(C(F)(F)F)ccc3F)CC2)nc2ccccc12 [compound 192] | 3 (Class 3 The value of percent of control at 10^−7 M was more than 60% or the value of IC50 was more than 200 nM.)
COc1cccc(CC(=O)NC[C@H]2CC[C@@H](Nc3cc(N(C)C)c4ccccc4n3)CC2)c1 [compound 194] | 3 (Class 3 The value of percent of control at 10^−7 M was more than 60% or the value of IC50 was more than 200 nM.)
CN(C)c1cc(N[C@H]2CC[C@@H](CNC(=O)Cc3ccc(F)cc3)CC2)nc2ccccc12 [compound 195] | 3 (Class 3 The value of percent of control at 10^−7 M was more than 60% or the value of IC50 was more than 200 nM.)
COc1ccc(CC(=O)NC[C@H]2CC[C@@H](Nc3cc(N(C)C)c4ccccc4n3)CC2)cc1 [compound 196] | 3 (Class 3 The value of percent of control at 10^−7 M was more than 60% or the value of IC50 was more than 200 nM.)
Cc1cc(C(=O)NC[C@H]2CC[C@@H](Nc3cc(N(C)C)c4ccccc4n3)CC2)c(C(F)(F)F)o1 [compound 197] | 3 (Class 3 The value of percent of control at 10^−7 M was more than 60% or the value of IC50 was more than 200 nM.)
